The target of the assay is T1, Glycylpeptide N-tetradecanoyltransferase (Candida albicans (strain SC5314 / ATCC MYA-2876), UniProt P30418).
T1 sequence (P30418 whole entry): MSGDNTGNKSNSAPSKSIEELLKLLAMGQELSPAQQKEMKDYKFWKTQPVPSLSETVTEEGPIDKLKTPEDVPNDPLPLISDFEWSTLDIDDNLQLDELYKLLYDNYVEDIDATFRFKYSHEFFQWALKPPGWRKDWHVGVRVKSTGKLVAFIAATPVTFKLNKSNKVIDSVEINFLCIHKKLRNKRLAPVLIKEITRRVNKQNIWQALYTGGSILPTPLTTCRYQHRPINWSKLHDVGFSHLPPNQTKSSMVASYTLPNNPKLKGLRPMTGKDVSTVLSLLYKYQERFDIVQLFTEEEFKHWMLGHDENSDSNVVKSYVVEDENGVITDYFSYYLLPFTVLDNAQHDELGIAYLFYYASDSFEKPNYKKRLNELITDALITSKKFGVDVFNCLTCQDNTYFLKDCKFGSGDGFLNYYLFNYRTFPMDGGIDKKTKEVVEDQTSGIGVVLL
In words: The Compound was tested for the inhibition potency against Candida albicans N-myristoyltransferase (NMT) and reported as apparent Ki.

For H-ALYASKLS-NH2, the Ki is 15.3 µM.

The values are drawn from BindingDB's records for doi:10.1021/jm980001q (G.D. Searle And, 1998).
